Experimental data reported in ChEMBL document CHEMBL1146942, “Abacavir prodrugs: microwave-assisted synthesis and their evaluation of anti-HIV activities” (Bioorg Med Chem Lett, 2006).

Legend:
[1] = tested on: Human immunodeficiency virus 1; test: Antiviral activity against HIV1 replication in CEM cell line; type: functional, organism-based; conditions: Human immunodeficiency virus 1, CCRF-CEM
CCRF-CEM [2] = test: Cytotoxicity against CEM cell line; type: functional; conditions: Homo sapiens
CCRF-CEM [3] = test: Selectivity index (CC50/EC50) for inhibition of HIV1 replication in CEM cell line; type: functional

Compound | EC50 [1] | CC50 (CCRF-CEM [2]) | Selectivity index (CCRF-CEM [3])
OCC1C=CC(n2cnc3c(NC4CC4)nc(/N=C(\c4ccccc4)c4ccc(Br)cc4)nc32)C1 (stereo not given) | 3.7 µM | 45 µM | –
Cc1ccc2c(c1)/C(=N\c1nc(NC3CC3)c3ncn(C4C=CC(CO)C4)c3n1)C(=O)N2 (stereo not given) | 2.1 µM | 78 µM | –
O=C1Nc2ccc(F)cc2/C1=N\c1nc(NC2CC2)c2ncn(C3C=CC(CO)C3)c2n1 (stereo not given) | 6.2 µM | 56 µM | –
C/C(=N\c1nc(NC2CC2)c2ncn(C3C=CC(CO)C3)c2n1)c1ccc(O)cc1 (stereo not given) | 1.9 µM | 62 µM | –
O=C1Nc2ccccc2/C1=N\c1nc(NC2CC2)c2ncn(C3C=CC(CO)C3)c2n1 (stereo not given) | 5 µM | 48 µM | –
Nc1nc(NC2CC2)c2ncn([C@H]3C=C[C@@H](CO)C3)c2n1 [ABACAVIR] | 1.6 µM | 83 µM | –

These reach a lower EC50 [1]. Values come first.

EC50 [1] | Compound | CC50 (CCRF-CEM [2]) | Selectivity index (CCRF-CEM [3])
0.48 µM | O=[N+]([O-])c1ccccc1/C=N/c1nc(NC2CC2)c2ncn(C3C=CC(CO)C3)c2n1 (stereo not given) | 13 µM | –
0.06 µM | CN(C)c1ccc(/C=N/c2nc(NC3CC3)c3ncn(C4C=CC(CO)C4)c3n2)cc1 (stereo not given) | > 100 µM | –
0.36 µM | COc1ccc(/C=N/c2nc(NC3CC3)c3ncn(C4C=CC(CO)C4)c3n2)cc1 (stereo not given) | > 100 µM | –
1.2 µM | COc1ccc(/C=N/c2nc(NC3CC3)c3ncn(C4C=CC(CO)C4)c3n2)c(O)c1 (stereo not given) | 100 µM | –
0.52 µM | O=[N+]([O-])c1ccc(/C=N/c2nc(NC3CC3)c3ncn(C4C=CC(CO)C4)c3n2)cc1 (stereo not given) | 12 µM | –
0.05 µM | Cc1ccc(/C=N/c2nc(NC3CC3)c3ncn(C4C=CC(CO)C4)c3n2)cc1 (stereo not given) | > 100 µM | >2000
